Data reported in patent publication US20230257396A1, “MACROCYCLES AND THEIR USE” (BLOSSOMHILL THERAPEUTICS, INC., priority 2020, published 2023).

How the values were obtained:
Assay in all cases: KINOMEscan kinase binding assay (Eurofins/DiscoveRx), % Ctrl
kinases [1] = target: T1, kinases (Homo sapiens, UniProt P00519, T315I); conditions: 1 μM
T1 construct: purchased Eurofins/DiscoveRx; host or cells: E. coli BL21-derived host (T7 phage display) for most kinases; HEK-293 for the rest
Outline: (§1)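 Competition binding: DNA- or phage-tagged kinases (T7 phage in E. coli BL21, or HEK-293-expressed) with immobilized biotinylated ligand beads and test compound, 1 h at room temperature. Bead-bound kinase eluted and quantified by qPCR; % Ctrl = (compound − positive control)/(negative control − positive control) ×100 at a single compound concentration.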

kinases [2] = target: T2, kinases (Homo sapiens, UniProt P00519, Q252H); conditions: 1 μM
T2 construct: purchased Eurofins/DiscoveRx; host or cells: E. coli BL21-derived host (T7 phage display) for most kinases; HEK-293 for the rest
Outline: as §1

kinases [3] = target: T3, kinases (Homo sapiens, UniProt P36888, D835Y); conditions: 1 μM; FLT3(D835Y)
T3 construct: purchased Eurofins/DiscoveRx; host or cells: E. coli BL21-derived host (T7 phage display) for most kinases; HEK-293 for the rest
T3 sequence (P36888 27-993 D835Y): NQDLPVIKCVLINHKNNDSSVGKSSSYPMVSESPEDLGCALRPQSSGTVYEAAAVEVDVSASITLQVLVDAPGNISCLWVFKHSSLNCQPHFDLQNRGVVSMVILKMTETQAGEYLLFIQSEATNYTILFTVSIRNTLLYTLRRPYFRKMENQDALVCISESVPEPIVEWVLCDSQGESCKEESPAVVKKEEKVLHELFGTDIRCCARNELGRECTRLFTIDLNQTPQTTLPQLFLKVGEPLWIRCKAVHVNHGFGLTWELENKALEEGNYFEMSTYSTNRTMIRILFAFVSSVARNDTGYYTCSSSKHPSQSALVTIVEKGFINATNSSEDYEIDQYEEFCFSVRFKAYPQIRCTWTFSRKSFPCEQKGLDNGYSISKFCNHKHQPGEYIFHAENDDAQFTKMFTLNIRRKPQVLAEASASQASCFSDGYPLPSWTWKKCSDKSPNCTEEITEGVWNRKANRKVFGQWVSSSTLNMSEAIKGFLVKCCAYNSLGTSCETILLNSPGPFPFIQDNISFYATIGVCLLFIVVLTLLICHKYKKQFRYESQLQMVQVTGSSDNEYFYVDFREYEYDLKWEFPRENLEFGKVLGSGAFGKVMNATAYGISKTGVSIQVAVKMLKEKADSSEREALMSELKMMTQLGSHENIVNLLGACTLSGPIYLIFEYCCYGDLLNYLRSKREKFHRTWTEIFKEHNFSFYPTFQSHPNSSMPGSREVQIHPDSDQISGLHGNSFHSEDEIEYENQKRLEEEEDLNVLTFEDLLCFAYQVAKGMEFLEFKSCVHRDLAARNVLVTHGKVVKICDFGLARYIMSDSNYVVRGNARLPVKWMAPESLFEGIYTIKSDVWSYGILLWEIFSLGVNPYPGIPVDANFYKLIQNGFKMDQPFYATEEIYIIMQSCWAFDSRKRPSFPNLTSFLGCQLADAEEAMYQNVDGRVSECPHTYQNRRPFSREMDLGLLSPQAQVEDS
Outline: as §1

kinases [4] = target: T4, kinases (Homo sapiens, UniProt P07949, V804M); conditions: 1 μM; RET(V804M)
T4 construct: purchased Eurofins/DiscoveRx; host or cells: E. coli BL21-derived host (T7 phage display) for most kinases; HEK-293 for the rest
T4 sequence (P07949 29-1114 V804M): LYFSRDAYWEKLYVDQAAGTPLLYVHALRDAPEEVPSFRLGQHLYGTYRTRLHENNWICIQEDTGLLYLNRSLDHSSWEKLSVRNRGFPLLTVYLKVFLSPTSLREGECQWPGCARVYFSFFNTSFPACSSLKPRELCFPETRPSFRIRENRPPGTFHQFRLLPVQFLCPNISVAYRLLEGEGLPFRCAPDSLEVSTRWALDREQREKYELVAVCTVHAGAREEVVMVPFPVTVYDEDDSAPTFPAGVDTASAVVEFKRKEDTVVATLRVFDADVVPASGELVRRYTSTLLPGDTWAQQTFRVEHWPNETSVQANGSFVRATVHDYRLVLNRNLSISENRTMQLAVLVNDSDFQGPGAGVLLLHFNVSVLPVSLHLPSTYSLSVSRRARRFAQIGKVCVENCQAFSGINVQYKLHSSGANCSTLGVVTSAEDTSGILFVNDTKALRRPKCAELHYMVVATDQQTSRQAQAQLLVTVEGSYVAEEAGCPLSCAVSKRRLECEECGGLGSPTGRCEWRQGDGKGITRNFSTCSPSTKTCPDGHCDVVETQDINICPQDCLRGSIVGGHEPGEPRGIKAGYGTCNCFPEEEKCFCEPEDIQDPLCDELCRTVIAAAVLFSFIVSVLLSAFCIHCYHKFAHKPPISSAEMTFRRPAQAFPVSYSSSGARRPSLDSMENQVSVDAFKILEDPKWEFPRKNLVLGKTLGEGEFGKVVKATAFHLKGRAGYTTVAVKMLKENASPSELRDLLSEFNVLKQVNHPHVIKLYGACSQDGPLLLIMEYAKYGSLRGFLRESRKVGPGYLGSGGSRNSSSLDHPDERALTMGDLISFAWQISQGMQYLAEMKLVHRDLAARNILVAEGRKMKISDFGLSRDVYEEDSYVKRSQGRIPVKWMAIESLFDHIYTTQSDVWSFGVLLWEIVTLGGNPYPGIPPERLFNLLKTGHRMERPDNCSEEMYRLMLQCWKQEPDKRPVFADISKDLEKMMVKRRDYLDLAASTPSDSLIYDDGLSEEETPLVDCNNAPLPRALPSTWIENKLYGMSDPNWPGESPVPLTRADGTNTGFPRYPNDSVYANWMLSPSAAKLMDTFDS
Outline: as §1

kinases [5] = target: T5, kinases (Homo sapiens, UniProt P10721); conditions: 1 μM
T5 construct: purchased Eurofins/DiscoveRx; host or cells: E. coli BL21-derived host (T7 phage display) for most kinases; HEK-293 for the rest
T5 sequence (P10721 26-976): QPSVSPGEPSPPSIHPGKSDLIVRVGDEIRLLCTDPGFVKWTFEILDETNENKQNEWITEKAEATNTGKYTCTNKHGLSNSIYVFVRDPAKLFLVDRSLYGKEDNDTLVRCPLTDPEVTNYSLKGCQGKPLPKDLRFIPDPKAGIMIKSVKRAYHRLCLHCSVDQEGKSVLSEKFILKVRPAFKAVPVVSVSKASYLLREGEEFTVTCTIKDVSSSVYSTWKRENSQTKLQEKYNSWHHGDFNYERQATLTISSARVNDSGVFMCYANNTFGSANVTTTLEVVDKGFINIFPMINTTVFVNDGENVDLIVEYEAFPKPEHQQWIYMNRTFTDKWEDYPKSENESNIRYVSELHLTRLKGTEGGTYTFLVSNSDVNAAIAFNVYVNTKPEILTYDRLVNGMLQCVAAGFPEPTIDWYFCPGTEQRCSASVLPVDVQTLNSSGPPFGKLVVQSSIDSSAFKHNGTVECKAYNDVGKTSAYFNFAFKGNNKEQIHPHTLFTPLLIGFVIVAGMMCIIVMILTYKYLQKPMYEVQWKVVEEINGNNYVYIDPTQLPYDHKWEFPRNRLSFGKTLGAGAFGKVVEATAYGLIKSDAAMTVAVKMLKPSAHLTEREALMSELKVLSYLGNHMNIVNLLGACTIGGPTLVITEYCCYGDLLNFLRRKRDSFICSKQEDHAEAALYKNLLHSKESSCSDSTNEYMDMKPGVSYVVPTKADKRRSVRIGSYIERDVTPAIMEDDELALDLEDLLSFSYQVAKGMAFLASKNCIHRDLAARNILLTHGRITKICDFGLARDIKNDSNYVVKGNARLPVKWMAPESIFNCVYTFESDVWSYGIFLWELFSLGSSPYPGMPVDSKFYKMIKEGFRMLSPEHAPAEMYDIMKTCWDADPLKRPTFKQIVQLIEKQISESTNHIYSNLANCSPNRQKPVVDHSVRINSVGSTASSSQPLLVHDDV
Outline: as §1

kinases [6] = target: T6, kinases (Homo sapiens, UniProt P16234); conditions: 1 μM; PDGFRA
T6 construct: purchased Eurofins/DiscoveRx; host or cells: E. coli BL21-derived host (T7 phage display) for most kinases; HEK-293 for the rest
T6 sequence (P16234 24-1089): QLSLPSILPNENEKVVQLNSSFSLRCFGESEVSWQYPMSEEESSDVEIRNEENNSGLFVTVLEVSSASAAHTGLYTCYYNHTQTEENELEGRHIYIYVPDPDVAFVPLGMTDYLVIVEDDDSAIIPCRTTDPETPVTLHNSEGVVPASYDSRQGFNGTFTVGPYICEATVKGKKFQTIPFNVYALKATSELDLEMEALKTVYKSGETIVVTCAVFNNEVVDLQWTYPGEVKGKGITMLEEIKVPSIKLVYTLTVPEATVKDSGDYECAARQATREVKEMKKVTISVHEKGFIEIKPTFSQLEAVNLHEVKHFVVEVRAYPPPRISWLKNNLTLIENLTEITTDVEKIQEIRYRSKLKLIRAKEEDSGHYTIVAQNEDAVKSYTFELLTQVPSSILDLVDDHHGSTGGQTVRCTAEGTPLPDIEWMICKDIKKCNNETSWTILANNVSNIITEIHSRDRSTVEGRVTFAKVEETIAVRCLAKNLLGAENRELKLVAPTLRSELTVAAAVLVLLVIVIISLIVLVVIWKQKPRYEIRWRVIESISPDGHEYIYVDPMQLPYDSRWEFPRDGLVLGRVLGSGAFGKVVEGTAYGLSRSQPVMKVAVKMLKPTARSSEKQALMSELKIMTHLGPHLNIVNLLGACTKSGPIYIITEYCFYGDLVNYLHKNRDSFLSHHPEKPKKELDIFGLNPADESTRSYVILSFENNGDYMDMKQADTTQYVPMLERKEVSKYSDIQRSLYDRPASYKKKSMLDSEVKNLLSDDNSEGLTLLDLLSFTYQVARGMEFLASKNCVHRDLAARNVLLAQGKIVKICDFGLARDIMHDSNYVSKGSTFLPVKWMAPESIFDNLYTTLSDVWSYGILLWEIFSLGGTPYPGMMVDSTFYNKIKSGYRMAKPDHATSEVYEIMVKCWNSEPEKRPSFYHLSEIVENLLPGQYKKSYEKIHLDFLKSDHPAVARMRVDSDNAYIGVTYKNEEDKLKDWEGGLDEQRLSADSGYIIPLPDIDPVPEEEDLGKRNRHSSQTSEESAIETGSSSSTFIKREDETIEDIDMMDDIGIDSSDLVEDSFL
Outline: as §1

| Compound | % Ctrl, ABL1(T315I)-nonphosphorylated (kinases [1]) | % Ctrl, ABL1(T315I)-phosphorylated (kinases [1]) | % Ctrl, ABL1(Q252H)-nonphosphorylated (kinases [2]) | % Ctrl, ABL1(Q252H)-phosphorylated (kinases [2]) | % Ctrl, FLT3(D835Y) (kinases [3]) | % Ctrl, RET(V804M) (kinases [4]) | % Ctrl, KIT (kinases [5]) | % Ctrl, KIT-autoinhibited (kinases [5]) | % Ctrl, PDGFRA (kinases [6]) |
| --- | --- | --- | --- | --- | --- | --- | --- | --- | --- |
| Cc1cc2c([nH]1)/C=C1\C(=O)Nc3ccc(cc31)-c1cnn(C)c1COCCN(C)C2=O [Ex. 124, [3a(4)Z]-6,9,14-trimethyl-10,11,13,14-tetrahydro-2H-1,17-(ethanediylidene)pyrazolo[4,3-m]dipyrrolo[3,2-f:3′,4′-i][1,4]oxazacyclopentadecine-3,8(5H,9H)-dione] | 0 % Ctrl | 0.1 % Ctrl | 0 % Ctrl | 0 % Ctrl | 5.6 % Ctrl | 0.05 % Ctrl | 45 % Ctrl | 93 % Ctrl | 7.9 % Ctrl |
| Cc1cc2c([nH]1)/C=C1\C(=O)Nc3ccc(cc31)-c1cnn(C)c1CNCCN(C)C2=O [Ex. 125, [3a(4)Z]-6,9,14-trimethyl-9,10,11,12,13,14-hexahydro-1,17-(ethanediylidene)pyrazolo[4,3-m]dipyrrolo[3,2-f:3′,4′-i][1,4]diazacyclopentadecine-3,8(2H,5H)-dione] | 0 % Ctrl | 0.1 % Ctrl | 0 % Ctrl | 0.05 % Ctrl | 0 % Ctrl | 0 % Ctrl | 42 % Ctrl | 95 % Ctrl | 7.7 % Ctrl |
| Cc1cc2c([nH]1)/C=C1\C(=O)Nc3ccc(cc31)-c1cnn(C)c1CN(C)CCN(C)C2=O [Ex. 126, [3a(4)Z]-6,9,12,14-tetramethyl-9,10,11,12,13,14-hexahydro-1,17-(ethanediylidene)pyrazolo[4,3-m]dipyrrolo[3,2-f:3′,4′-i][1,4]diazacyclopentadecine-3,8(2H,5H)-dione] | 0 % Ctrl | 0 % Ctrl | 1.7 % Ctrl | 0.75 % Ctrl | 1.4 % Ctrl | 0 % Ctrl | 6.3 % Ctrl | 84 % Ctrl | 1.2 % Ctrl |
| Cc1cc2c([nH]1)/C=C1\C(=O)Nc3ccc(cc31)-c1c(C)n[nH]c1CNCCN(C)C2=O [Ex. 127, [3a(4)Z]-6,9,16-trimethyl-9,10,11,12,13,14-hexahydro-1,17-(ethanediylidene)pyrazolo[4,3-m]dipyrrolo[3,2-f:3′,4′-i][1,4]diazacyclopentadecine-3,8(2H,5H)-dione] | 0 % Ctrl | 0.65 % Ctrl | 0 % Ctrl | 0.05 % Ctrl | 1.4 % Ctrl | 1.6 % Ctrl | 89 % Ctrl | 80 % Ctrl | 47 % Ctrl |
| Cc1cc2c([nH]1)/C=C1\C(=O)Nc3ccc(cc31)-c1c(noc1C)COCCN(C)C2=O [Ex. 128, [3a(4)Z]-6,9,16-trimethyl-1,11-dihydro-2H,13H-1,17-(ethanediylidene)[1,4]oxazolo[4,3-m]dipyrrolo[3,2-f:3′,4′-i][1,4]oxazacyclopentadecine-3,8(5H,9H)-dione] | 20 % Ctrl | 4.2 % Ctrl | 57 % Ctrl | 42 % Ctrl | 22 % Ctrl | 55 % Ctrl | 98 % Ctrl | 97 % Ctrl | 89 % Ctrl |
| Cc1cc2c([nH]1)/C=C1\C(=O)Nc3ccc(cc31)OCCOCCNC2=O [Ex. 129, [16a(17)Z]-2-methyl-6,7,9,10-tetrahydro-1H-12,14-(ethanediylidene)dipyrrolo[3,2-i:3′,4′-l][1,4,7]dioxazacyclopentadecine-4,16(5H,15H)-dione] | 92 % Ctrl | 91 % Ctrl | 87 % Ctrl | 86 % Ctrl | 9.1 % Ctrl | 94 % Ctrl | 100 % Ctrl | 78 % Ctrl | 100 % Ctrl |
| Cc1cc2c([nH]1)/C=C1\C(=O)Nc3cc(Cl)c(cc31)OCCOCCN(C)C2=O [Ex. 131, [16a(17)Z]-19-chloro-2,5-dimethyl-6,7,9,10-tetrahydro-1H-12,14-(ethanediylidene)dipyrrolo[3,2-i:3′,4′-l][1,4,7]dioxazacyclopentadecine-4,16(5H,15H)-dione] | 0 % Ctrl | 1.1 % Ctrl | 0 % Ctrl | 0.2 % Ctrl | 2.3 % Ctrl | 0.15 % Ctrl | 1.1 % Ctrl | 13 % Ctrl | 7.7 % Ctrl |
| Cc1cc2c([nH]1)/C=C1\C(=O)Nc3cc(Cl)c(cc31)OCCO[C@@H](C(=O)NC1CNC1)CN(C)C2=O [Ex. 133, [7R,16a(17)Z]-N-(azetidin-3-yl)-19-chloro-2,5-dimethyl-4,16-dioxo-4,5,6,7,9,10,15,16-octahydro-1H-12,14-(ethanediylidene)dipyrrolo[3,2-i:3′,4′-l][1,4,7]dioxazacyclopentadecine-7-carboxamide] | 94 % Ctrl | 78 % Ctrl | 61 % Ctrl | 49 % Ctrl | 3.1 % Ctrl | 69 % Ctrl | 65 % Ctrl | 75 % Ctrl | 70 % Ctrl |
| Cc1cc2c([nH]1)/C=C1\C(=O)Nc3cc(Cl)c(cc31)OCCO[C@@H](C(=O)NC1CCNCC1)CN(C)C2=O [Ex. 134, [7R,16a(17)Z]-19-chloro-2,5-dimethyl-4,16-dioxo-N-(piperidin-4-yl)-4,5,6,7,9,10,15,16-octahydro-1H-12,14-(ethaneidylidene)dipyrrolo[3,2-i:3′,4′-l][1,4,7]dioxazacyclopentadecine-7-carboxamide] | 84 % Ctrl | 46 % Ctrl | 32 % Ctrl | 18 % Ctrl | 10 % Ctrl | 81 % Ctrl | 60 % Ctrl | 94 % Ctrl | 72 % Ctrl |
| CNC(=O)[C@H]1CN(C)C(=O)c2cc(C)[nH]c2/C=C2\C(=O)Nc3cc(Cl)c(cc32)OCCO1 [Ex. 135, [7R,16a(17)Z]-19-chloro-N,2,5-trimethyl-4,16-dioxo-4,5,6,7,9,10,15,16-octahydro-1H-12,14-(ethanediylidene)dipyrrolo[3,2-i:3′,4′-l][1,4,7]dioxazacyclopentadecine-7-carboxamide] | 94 % Ctrl | 72 % Ctrl | 43 % Ctrl | 47 % Ctrl | 13 % Ctrl | 77 % Ctrl | 55 % Ctrl | 82 % Ctrl | 79 % Ctrl |
